Assays:
[1] = tested on: microglia in lumbar ventral horn; experiment: Microglia activation in G93A ALS mouse (TOMATO Lectin); format: in vivo; conditions: 5 mg/kg/day
Experimental: G93A (Glycine ? Alanine) transgenic mouse having similar pathophysiological characteristics with ALS (amyotrophic lateral sclerosis) human patient was used to evaluate therapeutic effect of drug in ALS, one of main degenerative brain diseases.
Activation degree of microglia (a marker of inflammation in brain disease model) expressed in the lumbar ventral horn of G93A mouse were evaluated with TOMATO Lectin dye. In G93A mouse, microglia was more activated compared to the wild type mouse.

[2] = tested on: AGS cell line (human gastric cancer cells); experiment: Cell-protecting effect in AGS cells (Helicobacter, sulindac, H2O2, ethanol; MTT); format: cell-based; conditions: most cell death models
Experimental: (§1) FIG. 3 is results showing cell-protecting effect of compound 2 on gastric mucous membrane damage induced by Helicobacter. Helicobacter (43504, 5×10^6 cfu/ml) was administered to cultured AGS (human gastric cancer) cell, alone or with sample having indicated concentration. MTT analysis method was used to evaluate the survival rate of gastric mucous membrane cell 24 hours after administration.
as §1, with “4” for “3”, “sulindac, a NSAID. 100 uM of sulindac” for “Helicobacter. Helicobacter (43504, 5×10^6 cfu/ml)”, “AGS” for “AGS (human gastric cancer)”, “16” for “24”
FIG. 5 is results showing cell-protecting effect of compound 2 on gastric mucous membrane damage induced by H2O2, oxidative stress. Cultured AGS cell was treated with 100 uM of H2O2 for 8 hours, alone or with sample having indicated concentration, and was washed with culture medium. MTT analysis method was used to evaluate the survival rate of gastric mucous membrane cell 24 hours later. […]
Cell-protecting effect of the 2-hydroxybenzoic acid derivative of the present invention was evaluated. […] After than, the absorbance was analyzed by ELISA reader at 540 nm, and the survival rate of gastric mucous membranes cell was calculated.

[3] = tested on: TNF-α, IL-1β and IL-6 in brain; experiment: Cytokines in brain of APP/PS1 dementia mice (ELISA); format: in vivo, mouse; conditions: 25 mg/kg/day in chow for 7 months, vs APP/PS1 fed general chow
Experimental: FIG. 25 are graphs showing the levels of TNF-α, IL-1β or IL-6 in brain of 10.5 month-old APP/PS1 dementia mouse (Tg+). The levels were evaluated by ELISA method.
After administration of drug for 7 months, the levels of TNF-α, IL-1β and IL-6 were quantified by ELISA (mean±SEM, n=3-5). Significant difference from control (APP/PS1 mouse fed with general chow only), p<0.05 using one-way ANOVA according to Student-Neuman-Keuls' test.

[4] = tested on: TNF-alpha gene expression in BV2 cell line; experiment: Suppressing effect on gene expression (RT-PCR), TNF-alpha; format: cell-based; conditions: gene expression vs LPS control, BV2, 24 hours
Experimental: Effects of the 2-hydroxybenzoic acid derivatives on iNOS gene expression in BV2 cell line were evaluated. 100 mm dish was inoculated with 1×10^6 cells of BV2 cell line, and treated with both LPS, inflammation-inducing material, and 1˜100 uM of the 2-hydroxybenzoic acid derivative of the present invention, together, in regular concentration interval. After 24 hours of incubation, RNA was extracted. Extracted RNA was used in reverse transcription and polymerase chain reaction, and expression patterns of TNF-alpha, IL-1beta and iNOS were compared.

[5] = Single-dose toxicity test; format: in vivo; conditions: mouse, in vivo; single dose
Experimental: FIG. 32 is results of single dose toxicity testing of some 2-hydroxybenzoic acid derivatives according to the present invention.
Single-dose toxicities of the 2-hydroxybenzoic acid derivatives were evaluated.

[6] = tested on: gastric bleeding caused by alcohol; experiment: Alcoholic gastritis; format: in vivo, rat; conditions: pre-treated 1 hour before alcohol
Experimental: FIG. 9 is results showing protecting effect of compound 2 on alcoholic gastritis. A is a picture of normal rat stomach. B is a picture of rat stomach, wherein gastrointestinal bleeding was caused by oral administration of ethanol (4 ml/kg) after 250 g of rat was fasted for 24 hours. C is a picture of rat stomach, wherein rat was pre-treated with compound 21 hour before induction of gastrointestinal bleeding, and stomach was taken out 90 minutes after gastrointestinal bleeding. D is a graph quantifying the degree of stomach injury.
Effect of the 2-hydroxybenzoic acid derivative on alcoholic gastritis was evaluated. 250 g of rat was fasted for 24 hours, and alcohol was orally administered to cause gastric bleeding (B).

[7] = tested on: collagen-induced arthritis; experiment: Collagen-induced arthritis model (arthritic index); format: in vivo, mouse; conditions: 25 mg/kg/day intraperitoneal
Experimental: FIG. 15 is results showing efficacy through arthritis animal model induced by collagen. 25 mg/kg of compound 2, 3 or 18, or methotrexate (control, MTX, 1 mg/kg/week) was intraperitoneally injected after administration of collagen.
FIG. 16 is results showing efficacy of compounds 6 and 11 through arthritis animal model induced by collagen. Collagen was intradermally injected two times with 2 week-interval. One week later, compound 6, compound 11 and methotrexate (control) were intraperitoneally injected. Then, the animals were observed everyday for 2-3 weeks, and results was evaluated by arthritis index.
To evaluate the efficacy of the 2-hydroxybenzoic acid derivative, collagen-induced arthritis model (rheumarthritis animal model) was used. Bovine type II collagen was mixed with complete Freund's adjuvant to make an emulsion, and the emulsion was intradermally injected into the origin site of 8˜10 week-old DBA/1LacJ mouse tail. Intradermal boosting was performed by the same method 2 weeks later. 25 mg/kg/day of compounds 2, 3 and 18, 1 mg/kg/week of methotrexate (comparative example) or 10% vehicle (control) were intraperitoneally injected one week after the second intradermal injection of collagen (FIG. 15). Pictures of foot edema of normal rat (sham), collagen-administered rat (collagen) and compound 18-administered rat (compound 18, 25 mg/kg/day injection) were shown in FIG. 14.
In addition, 50 mg/kg/day of compounds 6 and 11, and 5 mg/kg/2 days of methotrexate (comparative example) were intraperitoneally injected. Phosphate buffered saline was injected as control (FIG. 16). For 2˜3 weeks, the degree of arthritis was observed everyday, and the result was evaluated according to the below arthritic index using edema.
4 paws were evaluated as from 0 to 4 point, Total points: 16

O=C(O)c1cc(NCCc2ccc(C(F)(F)F)cc2)ccc1O [compound 2, 2-hydroxy-5-[2-(4-trifluoromethyl-phenyl)-ethylamino]-benzoic acid]
number and activation degree of microglia [1]: decreased the number and activation degree of microglia | cell-protecting effect ([2]; 1 uM and 10 uM): more than 50% | cell-protecting effect ([2]; 100 uM): more than 70% | levels of TNF-α, IL-1β and IL-6 in brain [3]: significantly reduced the levels of TNF-α, IL-β and IL-6 | inhibition at 100 µM ([4]; Mus musculus, BV-2, 24 h): 63.2% | % Inhibition (in 100 uM) TNF-alpha [4]: 63.2% | LD50 [5]: > 3000 mg/kg | gastric bleeding [6]: significantly reduced gastric bleeding | arthritic index [7]: apparent reducing effect
